Data reported in patent publication US20230414581A1, “SARM1 ENZYME ACTIVITY INHIBITOR AND USE THEREOF IN NEURODEGENERATIVE DISEASES” (ARTIVILA BIOPHARMA, priority 2020, published 2023).
pIC50: −log10 of the molar value.

Assays:
dN-SARM1 [1] = biological target: T1, dN-SARM1 (Homo sapiens (Human), UniProt Q6SZW1); experiment: In vitro biochemical test of inhibiting SARM1 enzyme activity (IC50), PC6 fluorescence method; conditions: dN-SARM1 0.05 μg/ml; 50 μM NAD, 50 μM PC6, 50 μM NMN activator; 10 min pre-incubation
Description: First, 200 μM of the compound was added to a 50 mM Tris-HCl (pH 7.5) solution containing 0.05 μg/ml dN-SARM1. Then half of the mixture was added to an equal volume of 50 mM Tris-HCl (pH 7.5) solution containing 0.05 μg/ml dN-SARM1 (pH 7.5) for mixing. The drug was diluted 6 times by analogy to final concentrations of 200, 100, 50, 25, 12.5, 6.25, 3.125 μM, or 200, 50, 12.5, 3.125, 0.78, 0.195, 0.049 μM. The solution without addition of inhibitor was control group. The above solutions were incubated at room temperature for 10 min.
(§1) Then 50 μM NAD, 50 μM PC6 as substrate and 50 μM NMN as activator were added to the dN-SARM1 protein incubated with inhibitor for 30 min of reaction at room temperature. The concentration of each component was the final concentration in the reaction system.
(§2) During the reaction process, PC6 fluorescence spectrum kinetics was detected by a microplate reader at an excitation wavelength and an emission wavelength of 390 nm and 520 nm, respectively. Finally, the activity of the protein was denoted by the reaction rate, and the half-inhibition concentration was calculated. The higher the reaction rate, the stronger the protein activity, and the lower the inhibition efficiency of the compound.

[2] = biological target: SARM1 in iSARM1 (HEK293) cells (Homo sapiens (Human), UniProt Q6SZW1); experiment: Inhibition of SARM1 activity in cell line with inducible overexpression of SARM1 (intracellular cADPR level); assay type: cell-based; conditions: 50 μM inhibitor, 100 μM CZ-48 activator, 16 h, cADPR content
Description: Firstly, a 96-well culture dish was treated with 0.05 mg/ml polylysine for 5 min, and washed once with PBS. 3×10^4 iSARM1 (HEK293) cells were plated into the 96-well plate and cultured in a 37° C. and 5% incubator overnight. The next day, the cells were added with an inhibitor with a final concentration of 50 μM, cultured in the incubator for 1.5 h, then added with the activator CZ-48 with a final concentration of 100 μM, and co-cultured for 16 h. In addition, a control group without addition of CZ-48 or drug was set up. Finally, the intracellular cADPR level was detected to denote the activity of SARM1, and the inhibition rate of SARM1 by 50 μM inhibitor in cells was calculated.
The cADPR assay was conducted as follows. First, the cells were washed once with PBS, and added with 150 μl of pre-cooled 0.6M perchloric acid (PCA) for rapid lysis of the cells and precipitation of proteins. […]
The content of cADPR in the solution was determined by Cycling analysis, which was operated as follows. […] Each well of the 96-well plate was added with the reaction solution containing or not containing cyclase for reaction, and the reaction kinetic curve within 30 min (Ex:Em=544/599) was recorded. The average slope of the reaction was calculated, and the accurate cADPR content was calculated by converting the cADPR standard. […]

dN-SARM1 [3] = biological target: T1, dN-SARM1; experiment: In vitro biochemical test of inhibiting SARM1 enzyme activity (% inhibition rate), PC6 fluorescence method; conditions: 50 μM compound; 0.05 μg/ml dN-SARM1; 50 μM NAD, 50 μM PC6, 50 μM NMN activator; 30 min room temperature
Description: The compounds were detected by PC6 fluorescence method [Chinese patent 202010528147.3] with the dN-SARM1 protein obtained in “Expression and purification of SARM1 protein” and “(4) Protein extraction” in Example 4 above.
as §1, with “First, 0.05 μg/ml dN-SARM1 and 50 μM compound were incubated in 50 mM Tris-HCl (pH 7.5) solution for 10 min. Then” for “Then”, “the drug” for “inhibitor”
as §2, with “rate.” for “rate, and the half-inhibition concentration was calculated.”

T1 sequence (Q6SZW1 28-724): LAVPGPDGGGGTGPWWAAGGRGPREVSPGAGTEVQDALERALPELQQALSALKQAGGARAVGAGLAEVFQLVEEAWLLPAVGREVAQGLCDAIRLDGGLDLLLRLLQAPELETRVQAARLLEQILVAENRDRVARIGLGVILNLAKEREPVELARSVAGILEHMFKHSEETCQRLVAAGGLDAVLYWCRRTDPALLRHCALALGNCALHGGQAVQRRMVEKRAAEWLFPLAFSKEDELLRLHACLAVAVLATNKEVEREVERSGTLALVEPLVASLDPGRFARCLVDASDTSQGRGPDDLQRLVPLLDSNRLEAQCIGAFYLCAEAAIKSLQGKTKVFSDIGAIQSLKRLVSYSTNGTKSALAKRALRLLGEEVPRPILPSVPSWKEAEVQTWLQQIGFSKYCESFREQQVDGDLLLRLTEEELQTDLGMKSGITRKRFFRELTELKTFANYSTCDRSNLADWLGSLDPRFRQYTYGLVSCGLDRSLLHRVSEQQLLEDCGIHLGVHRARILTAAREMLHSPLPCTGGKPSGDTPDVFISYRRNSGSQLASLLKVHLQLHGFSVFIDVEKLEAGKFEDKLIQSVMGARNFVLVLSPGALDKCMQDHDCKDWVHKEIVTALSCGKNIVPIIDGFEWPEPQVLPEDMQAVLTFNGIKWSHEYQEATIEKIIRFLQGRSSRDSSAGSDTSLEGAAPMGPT
SARM1 in iSARM1 (HEK293) cells, sequence (Q6SZW1 28-724): as above

Row | pIC50 (dN-SARM1 [1]) | Inhibition rate [2] | Inhibition rate of enzyme activity (dN-SARM1 [3]) | Structure (SMILES)
1 | > 6.00 |  |  | Cn1sc(=O)n(Cc2ccccc2)c1=O [Compound 1]
2 | > 6.00 | B (B: 25-50%) |  | O=c1sn(-c2ccccc2C(F)(F)F)c(=O)n1CC1CC1 [Compound 2]
3 | > 6.00 |  |  | Cn1c(=O)sn(-c2cccc3ccccc23)c1=O [Compound 3]
4 | > 6.00 |  |  | Cc1cccc(Cl)c1-n1sc(=O)n(CC2CC2)c1=O [Compound 4]
5 | > 6.00 |  |  | Cc1ccc(-n2sc(=O)n(Cc3ccc(F)cc3)c2=O)cc1 [Compound 6]
6 | > 6.00 |  | 98.6% | O=c1sn(-c2cccc3ccccc23)c(=O)n1Cc1ccccc1 [Compound 7]
7 | 5.00 to 6.00 |  |  | CC(C)c1ccc(-n2c(=O)sn(-c3ccc(SC(F)(F)F)cc3)c2=O)cc1 [Compound 8]
8 | < 5.00 |  | 93.7% | N#Cc1ccc(Cl)cc1Cc1cc(Cl)ccc1C#N [Compound 32]
9 | < 5.00 |  | 98.5% | N#Cc1c(Cl)cc(Cl)cc1Sc1cc(Cl)cc(Cl)c1O [Compound 36]
10 | > 6.00 |  | 101% | CCN(CC)C(=S)SSC(=S)N(CC)CC [Compound 37]
11 | 5.00 to 6.00 |  |  | CCn1c(=O)/c(=C2\Sc3ccccc3N2C)s/c1=C\c1cccc[n+]1CC [Compound 39]
12 |  |  | 75.6% | O=C(CCCCCCC(=O)Nc1ccccc1)NO [Compound 40]
13 |  |  | 67.3% | O=C(/C=C/c1ccc(CNCCc2c(O)[nH]c3ccccc23)cc1)NO [Compound 41]
14 |  |  | 67.4% | O=C(C=Cc1cccc(S(=O)(=O)Nc2ccccc2)c1)NO [Compound 42]
15 | < 5.00 |  | 85.3% | O=C(CCCCCCNC(=O)c1cnc(N(c2ccccc2)c2ccccc2)nc1)NO [Compound 43]

Row | Structure (SMILES) | pIC50 (dN-SARM1 [1]) | Inhibition rate [2] | Inhibition rate of enzyme activity (dN-SARM1 [3])
16 | Oc1cc(Cl)ccc1Oc1ccc(Cl)cc1Cl [Compound 35] | < 5.00 |  | 102%
